Measured values from ChEMBL document CHEMBL1909046, “DrugMatrix in vitro pharmacology data”.

Molecular target: T1, Alpha-2A adrenergic receptor (Homo sapiens, UniProt P08913)
T1 sequence (P08913 whole entry): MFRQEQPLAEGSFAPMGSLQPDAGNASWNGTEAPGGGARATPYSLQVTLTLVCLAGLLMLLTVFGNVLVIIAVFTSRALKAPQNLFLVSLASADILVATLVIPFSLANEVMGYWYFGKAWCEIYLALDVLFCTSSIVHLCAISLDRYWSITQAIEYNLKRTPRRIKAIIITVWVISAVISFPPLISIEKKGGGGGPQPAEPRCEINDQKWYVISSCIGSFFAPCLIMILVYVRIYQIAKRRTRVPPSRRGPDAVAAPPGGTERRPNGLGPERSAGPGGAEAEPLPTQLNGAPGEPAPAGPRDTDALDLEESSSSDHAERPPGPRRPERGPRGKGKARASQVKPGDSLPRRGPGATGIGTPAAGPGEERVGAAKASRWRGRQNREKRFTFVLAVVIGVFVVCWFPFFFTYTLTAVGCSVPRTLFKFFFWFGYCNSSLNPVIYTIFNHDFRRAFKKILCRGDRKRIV
Format: cell membranes, Sf9, Membrane
Conditions: read-out: IC50
Also: in other assays of this panel Not Active means under 50% inhibition at 10 µM.

Row | Compound | IC50
1 | Clc1ccc(COC(Cn2ccnc2)c2ccc(Cl)cc2Cl)c(Cl)c1 (centres undefined) [MICONAZOLE] | 3970 nM
2 | CC1CCC(NC(=O)N(CCCl)N=O)CC1 (centres undefined) [SEMUSTINE] | 4810 nM
3 | CCCCCCCCNC(C)C(O)c1ccc(SC(C)C)cc1 (centres undefined) [SULOCTIDIL] | 2020 nM

Same assay, conditions: read-out: Ki

Row | Compound | Ki
4 | Clc1ccc(COC(Cn2ccnc2)c2ccc(Cl)cc2Cl)c(Cl)c1 (centres undefined) [MICONAZOLE] | 1490 nM
5 | CC1CCC(NC(=O)N(CCCl)N=O)CC1 (centres undefined) [SEMUSTINE] | 1800 nM
6 | CCCCCCCCNC(C)C(O)c1ccc(SC(C)C)cc1 (centres undefined) [SULOCTIDIL] | 759 nM

Same assay, conditions: sf9

Row | Compound | IC50
7 | CCCCC(=O)N(Cc1ccc(-c2ccccc2-c2nnn[nH]2)cc1)[C@H](C(=O)O)C(C)C | Not Active
8 | O=C(O)COc1ccc(C(=O)c2cccs2)c(Cl)c1Cl | Not Active
9 | C[C@@](Cc1ccc(O)c(O)c1)(NN)C(=O)O.O [CARBIDOPA] | Not Active
10 | CC(C)NC[C@@H](O)COc1cccc2ccccc12 [DEXPROPRANOLOL] | Not Active

Molecular target: Substance-P receptor (Homo sapiens, UniProt P25103)
Format: cell membranes, CHO, Membrane
Conditions: cho

Sequence of Substance-P receptor (P25103 whole entry): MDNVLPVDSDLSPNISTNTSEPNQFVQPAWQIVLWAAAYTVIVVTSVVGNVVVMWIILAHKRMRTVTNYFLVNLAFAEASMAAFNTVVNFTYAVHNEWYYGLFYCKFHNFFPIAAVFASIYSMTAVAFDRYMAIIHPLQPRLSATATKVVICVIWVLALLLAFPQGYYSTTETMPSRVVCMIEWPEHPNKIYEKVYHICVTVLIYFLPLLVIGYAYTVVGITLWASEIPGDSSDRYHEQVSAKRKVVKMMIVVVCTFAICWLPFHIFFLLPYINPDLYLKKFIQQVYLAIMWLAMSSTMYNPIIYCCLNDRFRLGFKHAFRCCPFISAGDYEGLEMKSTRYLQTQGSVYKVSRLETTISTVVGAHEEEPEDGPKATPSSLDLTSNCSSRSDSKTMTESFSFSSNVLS

Row | Compound | IC50
11 | CCCCC(=O)N(Cc1ccc(-c2ccccc2-c2nnn[nH]2)cc1)[C@H](C(=O)O)C(C)C | Not Active
12 | O=C(O)COc1ccc(C(=O)c2cccs2)c(Cl)c1Cl | Not Active
13 | C[C@@](Cc1ccc(O)c(O)c1)(NN)C(=O)O.O [CARBIDOPA] | Not Active
14 | CC(C)NC[C@@H](O)COc1cccc2ccccc12 [DEXPROPRANOLOL] | Not Active
15 | CC1CCC(NC(=O)N(CCCl)N=O)CC1 (centres undefined) [SEMUSTINE] | Not Active
16 | CCCCCCCCNC(C)C(O)c1ccc(SC(C)C)cc1 (centres undefined) [SULOCTIDIL] | Not Active

Same assay, conditions: read-out: IC50

Row | Compound | IC50
17 | Clc1ccc(COC(Cn2ccnc2)c2ccc(Cl)cc2Cl)c(Cl)c1 (centres undefined) [MICONAZOLE] | 6810 nM

Same assay, conditions: read-out: Ki

Row | Compound | Ki
18 | Clc1ccc(COC(Cn2ccnc2)c2ccc(Cl)cc2Cl)c(Cl)c1 (centres undefined) [MICONAZOLE] | 3720 nM

Molecular target: Melanocortin receptor 3 (Homo sapiens, UniProt P41968)
Format: cell membranes, Membrane
Conditions: hek293

Sequence of Melanocortin receptor 3 (P41968 whole entry): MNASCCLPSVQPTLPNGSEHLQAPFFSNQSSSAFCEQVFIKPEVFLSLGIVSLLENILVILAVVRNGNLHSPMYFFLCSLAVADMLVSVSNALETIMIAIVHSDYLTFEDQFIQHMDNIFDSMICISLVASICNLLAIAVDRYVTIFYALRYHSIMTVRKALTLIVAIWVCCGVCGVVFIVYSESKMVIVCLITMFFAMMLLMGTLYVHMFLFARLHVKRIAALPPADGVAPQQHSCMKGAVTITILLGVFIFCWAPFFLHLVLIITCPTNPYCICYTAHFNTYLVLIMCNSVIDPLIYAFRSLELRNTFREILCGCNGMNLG

Row | Compound | IC50
19 | CCCCC(=O)N(Cc1ccc(-c2ccccc2-c2nnn[nH]2)cc1)[C@H](C(=O)O)C(C)C | Not Active
20 | O=C(O)COc1ccc(C(=O)c2cccs2)c(Cl)c1Cl | Not Active
21 | C[C@@](Cc1ccc(O)c(O)c1)(NN)C(=O)O.O [CARBIDOPA] | Not Active
22 | CC(C)NC[C@@H](O)COc1cccc2ccccc12 [DEXPROPRANOLOL] | Not Active
23 | CC1CCC(NC(=O)N(CCCl)N=O)CC1 (centres undefined) [SEMUSTINE] | Not Active
24 | CCCCCCCCNC(C)C(O)c1ccc(SC(C)C)cc1 (centres undefined) [SULOCTIDIL] | Not Active

Molecular target: Platelet-activating factor receptor (Homo sapiens, UniProt P25105)
Format: tissue-based
Conditions: not given

Sequence of Platelet-activating factor receptor (P25105 whole entry): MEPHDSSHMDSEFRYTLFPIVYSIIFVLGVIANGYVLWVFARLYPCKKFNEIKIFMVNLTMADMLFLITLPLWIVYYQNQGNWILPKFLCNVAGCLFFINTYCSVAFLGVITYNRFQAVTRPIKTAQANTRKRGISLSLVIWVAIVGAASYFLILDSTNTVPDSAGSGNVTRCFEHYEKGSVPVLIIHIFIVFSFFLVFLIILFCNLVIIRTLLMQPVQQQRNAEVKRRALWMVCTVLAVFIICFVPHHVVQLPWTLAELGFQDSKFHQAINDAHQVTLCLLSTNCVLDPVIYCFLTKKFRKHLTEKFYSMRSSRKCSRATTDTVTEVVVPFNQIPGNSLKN

Row | Compound | IC50
25 | CCCCC(=O)N(Cc1ccc(-c2ccccc2-c2nnn[nH]2)cc1)[C@H](C(=O)O)C(C)C | Not Active
26 | O=C(O)COc1ccc(C(=O)c2cccs2)c(Cl)c1Cl | Not Active
27 | C[C@@](Cc1ccc(O)c(O)c1)(NN)C(=O)O.O [CARBIDOPA] | Not Active
28 | CC(C)NC[C@@H](O)COc1cccc2ccccc12 [DEXPROPRANOLOL] | Not Active
29 | Clc1ccc(COC(Cn2ccnc2)c2ccc(Cl)cc2Cl)c(Cl)c1 (centres undefined) [MICONAZOLE] | Not Active
30 | CC1CCC(NC(=O)N(CCCl)N=O)CC1 (centres undefined) [SEMUSTINE] | Not Active
31 | CCCCCCCCNC(C)C(O)c1ccc(SC(C)C)cc1 (centres undefined) [SULOCTIDIL] | Not Active

Molecular target: Matrix metalloproteinase-9 (Homo sapiens, UniProt P14780);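 also: inhibition of isolated MMP-9 enzyme activity toward a synthetic peptide substrate, from the DrugMatrix protease screening panel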
Format: cell-based
Conditions: not given

Sequence of Matrix metalloproteinase-9 (P14780 whole entry): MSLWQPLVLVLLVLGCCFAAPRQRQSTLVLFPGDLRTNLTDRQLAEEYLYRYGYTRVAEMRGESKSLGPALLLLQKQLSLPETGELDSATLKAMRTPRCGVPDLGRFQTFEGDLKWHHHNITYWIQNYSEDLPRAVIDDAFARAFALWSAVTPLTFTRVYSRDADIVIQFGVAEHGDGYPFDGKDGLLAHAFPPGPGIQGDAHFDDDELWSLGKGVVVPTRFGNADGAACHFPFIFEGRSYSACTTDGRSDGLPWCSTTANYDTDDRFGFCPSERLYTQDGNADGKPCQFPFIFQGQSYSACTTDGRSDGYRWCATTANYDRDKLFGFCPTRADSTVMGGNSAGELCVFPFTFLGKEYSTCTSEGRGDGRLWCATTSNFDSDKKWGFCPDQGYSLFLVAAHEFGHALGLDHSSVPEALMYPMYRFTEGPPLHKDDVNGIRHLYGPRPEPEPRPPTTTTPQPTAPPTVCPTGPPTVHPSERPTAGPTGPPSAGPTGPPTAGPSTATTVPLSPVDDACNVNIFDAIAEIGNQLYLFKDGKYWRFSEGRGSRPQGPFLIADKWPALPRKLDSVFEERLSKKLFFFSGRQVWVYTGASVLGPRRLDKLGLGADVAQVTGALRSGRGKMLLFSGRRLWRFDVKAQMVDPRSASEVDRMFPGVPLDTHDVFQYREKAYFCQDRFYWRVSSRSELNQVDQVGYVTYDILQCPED

Row | Compound | IC50
32 | CCCCC(=O)N(Cc1ccc(-c2ccccc2-c2nnn[nH]2)cc1)[C@H](C(=O)O)C(C)C | Not Active
33 | O=C(O)COc1ccc(C(=O)c2cccs2)c(Cl)c1Cl | Not Active
34 | C[C@@](Cc1ccc(O)c(O)c1)(NN)C(=O)O.O [CARBIDOPA] | Not Active
35 | CC(C)NC[C@@H](O)COc1cccc2ccccc12 [DEXPROPRANOLOL] | Not Active
36 | Clc1ccc(COC(Cn2ccnc2)c2ccc(Cl)cc2Cl)c(Cl)c1 (centres undefined) [MICONAZOLE] | Not Active
37 | CC1CCC(NC(=O)N(CCCl)N=O)CC1 (centres undefined) [SEMUSTINE] | Not Active
38 | CCCCCCCCNC(C)C(O)c1ccc(SC(C)C)cc1 (centres undefined) [SULOCTIDIL] | Not Active

Molecular target: T2, Adenosine receptor A1 (Homo sapiens, UniProt P30542);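 also: radioligand binding assay at the adenosine A1 receptor, with DPCPX serving as the labelled ligand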
T2 sequence (P30542 whole entry): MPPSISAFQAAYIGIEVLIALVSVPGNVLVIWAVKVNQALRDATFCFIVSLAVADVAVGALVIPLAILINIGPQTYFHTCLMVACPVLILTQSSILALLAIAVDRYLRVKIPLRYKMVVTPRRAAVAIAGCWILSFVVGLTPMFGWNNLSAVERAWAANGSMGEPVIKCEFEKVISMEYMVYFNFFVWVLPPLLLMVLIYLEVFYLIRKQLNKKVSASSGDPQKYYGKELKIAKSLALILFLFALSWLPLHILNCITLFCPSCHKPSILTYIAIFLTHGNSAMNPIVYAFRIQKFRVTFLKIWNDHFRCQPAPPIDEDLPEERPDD
Format: cell membranes, CHO, Membrane
Conditions: cho

Row | Compound | IC50
39 | CCCCC(=O)N(Cc1ccc(-c2ccccc2-c2nnn[nH]2)cc1)[C@H](C(=O)O)C(C)C | Not Active
40 | O=C(O)COc1ccc(C(=O)c2cccs2)c(Cl)c1Cl | Not Active
41 | C[C@@](Cc1ccc(O)c(O)c1)(NN)C(=O)O.O [CARBIDOPA] | Not Active
42 | CC(C)NC[C@@H](O)COc1cccc2ccccc12 [DEXPROPRANOLOL] | Not Active
43 | CC1CCC(NC(=O)N(CCCl)N=O)CC1 (centres undefined) [SEMUSTINE] | Not Active
44 | CCCCCCCCNC(C)C(O)c1ccc(SC(C)C)cc1 (centres undefined) [SULOCTIDIL] | Not Active
